# Data from PubChem BioAssay AID1745844 (Carcinogenic Potency Database (CPDB), 2022).
# Active and inactive are the calls of the source. No rule for the calls is given here.
# System: rodent lifetime carcinogenesis bioassay, tumor incidence TD50
# Experiment: carcinogenic potency in animals, long-term in vivo studies, CPDB compilation (AID 1745844)
# [1] = rat, strain Sprague-Dawley, females, i.p., site: any site (literature study), lesion: malignant tumor, dosed 104 weeks, study length 104 weeks
# [2] = rat, strain Sprague-Dawley, males, i.p., site: any site (literature study), lesion: malignant tumor, dosed 104 weeks, study length 104 weeks
structure (smiles),measurement,setting,value
CN1CCC[C@H]1c1cccnc1,carcinogen call,"mouse, strain Swiss albino, females, in drinking water, site: liver, lesion: several types, types named in the paper, dosed 121 weeks, study length 123 weeks",negative (inactive)
same,TD50,"mouse, strain Swiss albino, females, in drinking water, site: lung, lesion: one or several types, types not named, dosed 121 weeks, study length 123 weeks",11100 mg/kg/day (inactive)
same,carcinogen call,"mouse, strain Swiss albino, males, in drinking water, site: liver, lesion: several types, types named in the paper, dosed 114 weeks, study length 120 weeks",negative (inactive)
same,carcinogen call,"mouse, strain Swiss albino, males, in drinking water, site: lung, lesion: one or several types, types not named, dosed 114 weeks, study length 120 weeks",negative (inactive)
same,carcinogen call,[1],negative (inactive)
same,TD50,[2],6.38 mg/kg/day (inactive)
CNN,TD50,"hamster, strain Syrian Golden, females, in drinking water, site: cecum, lesion: polypoid adenoma, dosed 86 weeks, study length 86 weeks",29.8 mg/kg/day
same,TD50,"hamster, strain Syrian Golden, females, in drinking water, site: cecum, lesion: several types, types named in the paper, dosed 86 weeks, study length 86 weeks",25.8 mg/kg/day
same,TD50,"hamster, strain Syrian Golden, females, in drinking water, site: liver, lesion: histiocytoma, malignant, dosed 86 weeks, study length 86 weeks",15.4 mg/kg/day
same,TD50,"hamster, strain Syrian Golden, females, in drinking water, site: liver, lesion: several types, types named in the paper, dosed 86 weeks, study length 86 weeks",30.8 mg/kg/day
same,TD50,"hamster, strain Syrian Golden, females, in drinking water, site: lung, lesion: angiosarcoma, dosed 86 weeks, study length 86 weeks",297 mg/kg/day (inactive)
same,TD50,"hamster, strain Syrian Golden, males, in drinking water, site: cecum, lesion: polypoid adenoma, dosed 100 weeks, study length 100 weeks",50.7 mg/kg/day
same,TD50,"hamster, strain Syrian Golden, males, in drinking water, site: cecum, lesion: several types, types named in the paper, dosed 100 weeks, study length 100 weeks",42.1 mg/kg/day
same,TD50,"hamster, strain Syrian Golden, males, in drinking water, site: liver, lesion: histiocytoma, malignant, dosed 100 weeks, study length 100 weeks",9.2 mg/kg/day
same,carcinogen call,"mouse, strain Swiss, females, by gavage, site: lung, lesion: one or several types, types not named, dosed 40 weeks, study length 55 weeks",negative (inactive)
same,TD50,"mouse, strain Swiss, females, in drinking water, site: bile duct, lesion: cholangioma, dosed 62 weeks, study length 62 weeks",29.2 mg/kg/day
same,TD50,"mouse, strain Swiss, females, in drinking water, site: bile duct, lesion: several types, types named in the paper, dosed 62 weeks, study length 62 weeks",24.6 mg/kg/day
same,TD50,"mouse, strain Swiss, females, in drinking water, site: liver, lesion: hepatoma, dosed 62 weeks, study length 62 weeks",51.1 mg/kg/day
same,TD50,"mouse, strain Swiss, females, in drinking water, site: liver, lesion: several types, types named in the paper, dosed 113 weeks, study length 113 weeks",47.2 mg/kg/day
same,TD50,"mouse, strain Swiss, females, in drinking water, site: lung, lesion: adenocarcinoma, dosed 113 weeks, study length 113 weeks",5.63 mg/kg/day
same,TD50,"mouse, strain Swiss, females, in drinking water, site: lung, lesion: adenoma, dosed 62 weeks, study length 62 weeks",19.6 mg/kg/day
same,TD50,"mouse, strain Swiss, females, in drinking water, site: lung, lesion: adenoma, dosed 113 weeks, study length 113 weeks",4.02 mg/kg/day
same,TD50,"mouse, strain Swiss, females, in drinking water, site: lung, lesion: several types, types named in the paper, dosed 62 weeks, study length 62 weeks",21.4 mg/kg/day
same,TD50,"mouse, strain Swiss, females, in drinking water, site: lung, lesion: several types, types named in the paper, dosed 113 weeks, study length 113 weeks",2.98 mg/kg/day
same,TD50,"mouse, strain Swiss, males, in drinking water, site: all sites, lesion: malignant lymphoma, dosed 112 weeks, study length 112 weeks",7.85 mg/kg/day
same,TD50,"mouse, strain Swiss, males, in drinking water, site: bile duct, lesion: several types, types named in the paper, dosed 69 weeks, study length 69 weeks",22.5 mg/kg/day
same,TD50,"mouse, strain Swiss, males, in drinking water, site: liver, lesion: hepatoma, dosed 69 weeks, study length 69 weeks",7.25 mg/kg/day
same,TD50,"mouse, strain Swiss, males, in drinking water, site: liver, lesion: several types, types named in the paper, dosed 69 weeks, study length 69 weeks",4.58 mg/kg/day
same,TD50,"mouse, strain Swiss, males, in drinking water, site: lung, lesion: adenocarcinoma, dosed 112 weeks, study length 112 weeks",12 mg/kg/day
same,TD50,"mouse, strain Swiss, males, in drinking water, site: lung, lesion: adenoma, dosed 69 weeks, study length 69 weeks",10.1 mg/kg/day
same,TD50,"mouse, strain Swiss, males, in drinking water, site: lung, lesion: adenoma, dosed 112 weeks, study length 112 weeks",2.93 mg/kg/day
same,TD50,"mouse, strain Swiss, males, in drinking water, site: lung, lesion: several types, types named in the paper, dosed 112 weeks, study length 112 weeks",2.51 mg/kg/day
CC(=O)c1ccc(S(=O)(=O)NC(=O)NC2CCCCC2)cc1,carcinogen call,"mouse, strain B6C3F1, females, in feed, site: any site (literature study), lesion: several types, types named in the paper, dosed 103 weeks, study length 107 weeks",negative (inactive)
same,TD50,"mouse, strain B6C3F1, males, in feed, site: any site (literature study), lesion: several types, types named in the paper, dosed 103 weeks, study length 107 weeks",2370 mg/kg/day (inactive)
same,carcinogen call,"rat, strain Fischer 344, females, in feed, site: any site (literature study), lesion: several types, types named in the paper, dosed 103 weeks, study length 106 weeks",negative (inactive)
same,TD50,"rat, strain Fischer 344, males, in feed, site: all sites, lesion: leukemia, dosed 103 weeks, study length 105 weeks",527 mg/kg/day (inactive)
same,TD50,"rat, strain Fischer 344, males, in feed, site: any site (literature study), lesion: several types, types named in the paper, dosed 103 weeks, study length 105 weeks",2120 mg/kg/day
same,TD50,"rat, strain Fischer 344, males, in feed, site: liver, lesion: hepatocellular adenoma + hepatocellular carcinoma + neoplastic nodule, dosed 103 weeks, study length 105 weeks",16600 mg/kg/day
CN(Cc1cnc2nc(N)nc(N)c2n1)c1ccc(C(=O)N[C@@H](CCC(=O)O)C(=O)O)cc1,carcinogen call,"hamster, strain Syrian Golden, females, in feed, site: any site (literature study), lesion: several types, types named in the paper, dosed 101 weeks, study length 105 weeks",negative (inactive)
same,TD50,"hamster, strain Syrian Golden, females, in feed, site: liver, lesion: hepatocellular adenoma, dosed 101 weeks, study length 105 weeks",51.1 mg/kg/day (inactive)
same,TD50,"hamster, strain Syrian Golden, females, in feed, site: liver, lesion: several types, types named in the paper, dosed 101 weeks, study length 105 weeks",167 mg/kg/day
same,carcinogen call,"hamster, strain Syrian Golden, males, in feed, site: any site (literature study), lesion: several types, types named in the paper, dosed 108 weeks, study length 115 weeks",negative (inactive)
same,carcinogen call,"hamster, strain Syrian Golden, males, in feed, site: liver, lesion: one or several types, types not named, dosed 108 weeks, study length 115 weeks",negative (inactive)
same,TD50,"mouse, strain Swiss, females, in feed, site: any site (literature study), lesion: several types, types named in the paper, dosed 120 weeks, study length 120 weeks",48 mg/kg/day (inactive)
same,TD50,"mouse, strain Swiss, females, in feed, site: liver, lesion: hepatocellular carcinoma, dosed 120 weeks, study length 120 weeks",65.2 mg/kg/day (inactive)
same,carcinogen call,"mouse, strain Swiss, females, in feed, site: lung, lesion: several types, types named in the paper, dosed 120 weeks, study length 120 weeks",negative (inactive)
same,carcinogen call,"mouse, strain Swiss, males, in feed, site: any site (literature study), lesion: several types, types named in the paper, dosed 118 weeks, study length 120 weeks",negative (inactive)
same,carcinogen call,"mouse, strain Swiss, males, in feed, site: liver, lesion: hemangioma, dosed 118 weeks, study length 120 weeks",negative (inactive)
same,carcinogen call,"mouse, strain Swiss, males, in feed, site: lung, lesion: several types, types named in the paper, dosed 118 weeks, study length 120 weeks",negative (inactive)
same,TD50,"rat, strain BR 46, males, i.v., site: any site (literature study), lesion: benign tumor, dosed 52 weeks, study length 104 weeks",0.409 mg/kg/day (inactive)
same,TD50,"rat, strain BR 46, males, i.v., site: any site (literature study), lesion: malignant tumor, dosed 52 weeks, study length 104 weeks",2.96 mg/kg/day (inactive)
same,TD50,"rat, strain BR 46, males, i.v., site: any site (literature study), lesion: several types, types named in the paper, dosed 52 weeks, study length 104 weeks",0.33 mg/kg/day (inactive)
same,carcinogen call,[1],negative (inactive)
same,carcinogen call,[2],negative (inactive)
CCC[CH2][Sn]([CH2]CCC)([CH2]CCC)[O][Sn]([CH2]CCC)([CH2]CCC)[CH2]CCC,TD50,"rat, strain Wistar, females, in feed, site: adrenal medulla, lesion: pheochromocytoma, dosed 106 weeks, study length 106 weeks",1.79 mg/kg/day
same,TD50,"rat, strain Wistar, females, in feed, site: pituitary gland, anterior, lesion: one or several types, types not named, dosed 106 weeks, study length 106 weeks",3.73 mg/kg/day
same,TD50,"rat, strain Wistar, males, in feed, site: adrenal medulla, lesion: pheochromocytoma, dosed 106 weeks, study length 106 weeks",1.93 mg/kg/day
same,TD50,"rat, strain Wistar, males, in feed, site: pituitary gland, anterior, lesion: one or several types, types not named, dosed 106 weeks, study length 106 weeks",1.9 mg/kg/day
CO[C@@H]1[C@@H](O[C@@H]2O[C@H](C)[C@@H](O[C@H]3C[C@@](C)(O)[C@@H](OC(=O)CC(C)C)[C@H](C)O3)[C@H](N(C)C)[C@H]2O)[C@@H](CC=O)C[C@@H](C)[C@@H](O)/C=C/C=C/C[C@@H](C)OC(=O)C[C@H]1OC(C)=O,carcinogen call,"rat, strain F344/DuCrj, females, in feed, site: liver, lesion: hepatocellular adenoma, dosed 104 weeks, study length 106 weeks",negative (inactive)
same,carcinogen call,"rat, strain F344/DuCrj, females, in feed, site: liver, lesion: one or several types, types not named, dosed 52 weeks, study length 52 weeks",negative (inactive)
same,carcinogen call,"rat, strain F344/DuCrj, males, in feed, site: liver, lesion: hepatocellular adenoma, dosed 104 weeks, study length 106 weeks",negative (inactive)
same,TD50,"rat, strain F344/DuCrj, males, in feed, site: liver, lesion: hepatocellular carcinoma, dosed 104 weeks, study length 106 weeks",51300 mg/kg/day (inactive)
same,carcinogen call,"rat, strain F344/DuCrj, males, in feed, site: liver, lesion: one or several types, types not named, dosed 52 weeks, study length 52 weeks",negative (inactive)
CN(C)/C=N/c1nnc(/C=C/c2ccc([N+](=O)[O-])o2)o1,TD50,"rat, strain Sprague-Dawley, females, in feed, site: any site (literature study), lesion: several types, types named in the paper, dosed 46 weeks, study length 66 weeks",20.6 mg/kg/day
same,TD50,"rat, strain Sprague-Dawley, females, in feed, site: duodenum, lesion: adenocarcinoma, dosed 46 weeks, study length 66 weeks",336 mg/kg/day
same,TD50,"rat, strain Sprague-Dawley, females, in feed, site: duodenum, lesion: adenomatous polyp, dosed 46 weeks, study length 66 weeks",336 mg/kg/day
same,TD50,"rat, strain Sprague-Dawley, females, in feed, site: forestomach, lesion: squamous-cell papilloma, dosed 46 weeks, study length 66 weeks",221 mg/kg/day
same,TD50,"rat, strain Sprague-Dawley, females, in feed, site: lung, lesion: alveolar-cell carcinoma, dosed 46 weeks, study length 66 weeks",683 mg/kg/day
same,TD50,"rat, strain Sprague-Dawley, females, in feed, site: mammary gland, lesion: adenocarcinoma, dosed 46 weeks, study length 66 weeks",20.4 mg/kg/day
same,TD50,"rat, strain Sprague-Dawley, females, in feed, site: mammary gland, lesion: several types, types named in the paper, dosed 46 weeks, study length 66 weeks",22.4 mg/kg/day
CN1C(C(=O)Nc2ccccn2)=C(O)c2sc(Cl)cc2S1(=O)=O,carcinogen call,"rat, strain Sprague-Dawley, females, by gavage, site: any site (literature study), lesion: several types, types named in the paper, dosed 104 weeks, study length 104 weeks",negative (inactive)
same,carcinogen call,"rat, strain Sprague-Dawley, females, by gavage, site: kidney, lesion: one or several types, types not named, dosed 52 weeks, study length 52 weeks",negative (inactive)
same,TD50,"rat, strain Sprague-Dawley, females, by gavage, site: liver, lesion: hepatocellular adenoma, dosed 104 weeks, study length 104 weeks",13.2 mg/kg/day (inactive)
same,carcinogen call,"rat, strain Sprague-Dawley, males, by gavage, site: any site (literature study), lesion: several types, types named in the paper, dosed 104 weeks, study length 104 weeks",negative (inactive)
same,carcinogen call,"rat, strain Sprague-Dawley, males, by gavage, site: kidney, lesion: one or several types, types not named, dosed 52 weeks, study length 52 weeks",negative (inactive)
same,carcinogen call,"rat, strain Sprague-Dawley, males, by gavage, site: liver, lesion: several types, types named in the paper, dosed 104 weeks, study length 104 weeks",negative (inactive)
